Patent US20230048576A1, “COMPOUNDS FOR THE TREATMENT OF NEUROPATHIC PAIN” (City of Hope, priority 2019, published 2023)
In brackets after ≈: the same amount, converted by molar mass.

Columns and labels:
[1] = Mean group body weight in Taxol model; type: in vivo, rat; settings: 100 mg/kg PO, Group 4
Protocol: (§1) Neuropathic pain was induced by intraperitoneal administration of Taxol at a dose level of 6 mg/kg on study days 0-6 and 12 mg/kg on study days 7-12. Following injection of Taxol animals experienced pain as was assessed using the von Frey test. The development of neuropathic pain was confirmed by measuring mechanical allodynia (Von Frey test) on study day 13 (for inclusion) and on study day 14 (1 hour and 2 hour post dosing) and 24 hour post first dosing.

[2] = Stability in acidic environment (simulated gastric fluid test), precipitation under polarized light microscope; type: physicochemical
Protocol: To test the stability in the acidic environment (simulated gastric fluid test) of 5 and 10 mg/ml of LR-90 in 20% HPβCD in pH 8.0 buffer, the two concentrations were added into the equal volume of pH 1.2 buffer, mixed completely, and then observed under a polarized light microscope.

[3] = Solubility of purified LR-90 in different vehicles; type: physicochemical
Protocol: In order to develop a vehicle formulation for LR-90 for use in humans, 15 different vehicles were tested to measure the solubility of the purified LR-90 (Table 6).

[4] = Survival of animals during the study; type: in vivo, rat
Protocol: as §1

In the case of `CC(C)(Oc1ccc(NC(=O)Nc2ccc(Cc3ccc(NC(=O)Nc4ccc(OC(C)(C)C(=O)O)cc4)c(Cl)c3)cc2Cl)cc1)C(=O)O` [LR-90, methylene bis[4,4′-(2-chlorophenylureidophenoxyisobutyric acid)]], the “Mean group body weight” value ([1]; Day 16) was 284.75 g, the “Mean group body weight (% from baseline)” value ([1]; Day 16) was 127.91% and the “Mean group body weight” value ([1]; Day 20) was 266.63 g. The “Mean group body weight (% from baseline)” value ([1]; Day 20) was 119.75%, the “Mean group body weight” value ([1]; Day 23) was 249.00 g and the “Mean group body weight (% from baseline)” value ([1]; Day 23) was 111.34%. For the same molecule, the “Mean group body weight” value ([1]; Day 26) was 234.00 g, the “Mean group body weight (% from baseline)” value ([1]; Day 26) was 106.04% and the “precipitation after mixing with equal volume of pH 1.2 buffer” value ([2]; 5 mg/ml LR-90 in 20% HPβCD in pH 8.0 buffer, after an hour) was “no precipitation”. For the same molecule, the “precipitation after mixing with equal volume of pH 1.2 buffer” value ([2]; 10 mg/ml LR-90 in 20% HPβCD in pH 8.0 buffer, about 60 min) was “Very little precipitation”, the Solubility ([3]; Media: 10% Kolliphor RH40 in water (W/V)) was 1220 µg/mL (≈ 1.72 mM) and the Solubility ([3]; Media: 10% Solutol in water (W/V)) was 1250 µg/mL (≈ 1.76 mM). For the same molecule, the Solubility ([3]; Media: 10% TPGS in water (W/V)) was 560 µg/mL (≈ 0.789 mM), the Solubility ([3]; Media: 20% Labsol tn water (W/V)) was 1650 µg/mL (≈ 2.33 mM) and the Solubility ([3]; Media: 30% Captisol in water (W/V)) was 1710 µg/mL (≈ 2.41 mM). It also gave a Solubility ([3]; Media: 40% HPβCD in water (W/V)) of 3660 µg/mL (≈ 5.16 mM), a Solubility ([3]; Media: DMA) of over 531000 µg/mL and a Solubility ([3]; Media: DMSO) of over 258500 µg/mL. It also gave a Solubility ([3]; Media: EtOH) of over 4600 µg/mL, a Solubility ([3]; Media: PEG300) of over 16790 µg/mL and a Solubility ([3]; Media: PEG400) of over 10100 µg/mL. For the same molecule, the Solubility ([3]; Media: PG) was over 2270 µg/mL, the Solubility ([3]; Media: pH 6.8) was 1670 µg/mL (≈ 2.35 mM) and the Solubility ([3]; Media: pH 8) was 7120 µg/mL (≈ 10 mM). The “Survived Animals in %” value ([4]; 25 mg/kg PO, Group 6, Study Day 13) was 100%, the “Survived Animals in %” value ([4]; 25 mg/kg PO, Group 6, Study Day 14) was 100% and the “Survived Animals in %” value ([4]; 25 mg/kg PO, Group 6, Study Day 15) was 100%. The “Survived Animals in %” value ([4]; 25 mg/kg PO, Group 6, Study Day 16) was 100%, the “Survived Animals in %” value ([4]; 25 mg/kg PO, Group 6, Study Day 17) was 100% and the “Survived Animals in %” value ([4]; 25 mg/kg PO, Group 6, Study Day 18) was 100%. The “Survived Animals in %” value ([4]; 25 mg/kg PO, Group 6, Study Day 19) was 100%, the “Survived Animals in %” value ([4]; 25 mg/kg PO, Group 6, Study Day 20) was 100% and the “Survived Animals in %” value ([4]; 25 mg/kg PO, Group 6, Study Day 21) was 100%. For the same molecule, the “Survived Animals in %” value ([4]; 25 mg/kg PO, Group 6, Study Day 22) was 100%, the “Survived Animals in %” value ([4]; 25 mg/kg PO, Group 6, Study Day 23) was 100% and the “Survived Animals in %” value ([4]; 25 mg/kg PO, Group 6, Study Day 24) was 100%. For the same molecule, the “Survived Animals in %” value ([4]; 25 mg/kg PO, Group 6, Study Day 25) was 75%, the “Survived Animals in %” value ([4]; 25 mg/kg PO, Group 6, Study Day 28) was 38% and the “Survived Animals in %” value ([4]; 50 mg/kg PO, Group 5, Study Day 13) was 100%. For the same molecule, the “Survived Animals in %” value ([4]; 50 mg/kg PO, Group 5, Study Day 14) was 100%, the “Survived Animals in %” value ([4]; 50 mg/kg PO, Group 5, Study Day 15) was 100% and the “Survived Animals in %” value ([4]; 50 mg/kg PO, Group 5, Study Day 16) was 100%. The “Survived Animals in %” value ([4]; 50 mg/kg PO, Group 5, Study Day 17) was 100%, the “Survived Animals in %” value ([4]; 50 mg/kg PO, Group 5, Study Day 18) was 100% and the “Survived Animals in %” value ([4]; 50 mg/kg PO, Group 5, Study Day 19) was 100%. The “Survived Animals in %” value ([4]; 50 mg/kg PO, Group 5, Study Day 20) was 100%, the “Survived Animals in %” value ([4]; 50 mg/kg PO, Group 5, Study Day 21) was 100% and the “Survived Animals in %” value ([4]; 50 mg/kg PO, Group 5, Study Day 22) was 88%. For the same molecule, the “Survived Animals in %” value ([4]; 50 mg/kg PO, Group 5, Study Day 23) was 88%, the “Survived Animals in %” value ([4]; 50 mg/kg PO, Group 5, Study Day 24) was 50% and the “Survived Animals in %” value ([4]; 50 mg/kg PO, Group 5, Study Day 25) was 50%. The “Survived Animals in %” value ([4]; 50 mg/kg PO, Group 5, Study Day 28) was 38%, the “Survived Animals in %” value ([4]; 100 mg/kg PO, Group 4, Study Day 13) was 100% and the “Survived Animals in %” value ([4]; 100 mg/kg PO, Group 4, Study Day 14) was 100%. The “Survived Animals in %” value ([4]; 100 mg/kg PO, Group 4, Study Day 15) was 100%, the “Survived Animals in %” value ([4]; 100 mg/kg PO, Group 4, Study Day 16) was 100% and the “Survived Animals in %” value ([4]; 100 mg/kg PO, Group 4, Study Day 17) was 100%. For the same molecule, the “Survived Animals in %” value ([4]; 100 mg/kg PO, Group 4, Study Day 18) was 100%, the “Survived Animals in %” value ([4]; 100 mg/kg PO, Group 4, Study Day 19) was 100% and the “Survived Animals in %” value ([4]; 100 mg/kg PO, Group 4, Study Day 20) was 100%. For the same molecule, the “Survived Animals in %” value ([4]; 100 mg/kg PO, Group 4, Study Day 21) was 100%, the “Survived Animals in %” value ([4]; 100 mg/kg PO, Group 4, Study Day 22) was 100% and the “Survived Animals in %” value ([4]; 100 mg/kg PO, Group 4, Study Day 23) was 88%. For the same molecule, the “Survived Animals in %” value ([4]; 100 mg/kg PO, Group 4, Study Day 24) was 63%, the “Survived Animals in %” value ([4]; 100 mg/kg PO, Group 4, Study Day 25) was 38% and the “Survived Animals in %” value ([4]; 100 mg/kg PO, Group 4, Study Day 28) was 38%.
